Data taken from patent US7585859B2, “PDE4B inhibitors and uses therefor” (Plexxikon, Inc., priority 2004, dated 2009).

How the values were obtained:
[1] = biological target: T1, PDE4B: The catalytic domain of human PDE4B from S152-S528 (Homo sapiens, UniProt Q07343); assay: PDE4 IC50 determination by Scintillation Proximity Assay, PDE4B; type: biochemical; details: Table 1B, Formula I compounds; read-out: IC50 PDE4B
T1 construct: His6 (N); thrombin cleavage site (N); made in house; host or cells: E. coli
T1 sequence (Q07343 with tags, fused parts or gaps): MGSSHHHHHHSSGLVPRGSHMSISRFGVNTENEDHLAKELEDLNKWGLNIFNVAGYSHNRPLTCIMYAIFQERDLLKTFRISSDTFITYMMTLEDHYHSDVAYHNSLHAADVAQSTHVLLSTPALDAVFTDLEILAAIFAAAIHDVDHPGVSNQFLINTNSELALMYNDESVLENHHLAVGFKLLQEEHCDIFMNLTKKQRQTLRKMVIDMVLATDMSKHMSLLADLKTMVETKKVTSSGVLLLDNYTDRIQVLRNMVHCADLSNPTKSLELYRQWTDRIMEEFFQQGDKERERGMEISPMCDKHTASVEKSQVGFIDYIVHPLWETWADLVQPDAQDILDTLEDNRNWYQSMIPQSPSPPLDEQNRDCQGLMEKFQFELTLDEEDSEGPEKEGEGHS
How it was run: (§1)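 Hydrolysis of [^3H]cAMP measured by SPA with yttrium silicate beads, which bind the [^3H]AMP product strongly and cAMP weakly. Enzyme at 80 ng/ml for PDE4B, 4 ng/ml for PDE4D; 30 min at 30°.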

PDE4D = biological target: T2, PDE4D (Homo sapiens, UniProt Q08499); assay: PDE4 IC50 determination by Scintillation Proximity Assay, PDE4D; type: biochemical; details: Table 1B, Formula I compounds; read-out: IC50 PDE4D
T2 construct: PDE4D: The catalytic domain of human PDE4B from S3 16-V692; His6 (N); thrombin cleavage site (N); made in house; host or cells: E. coli
T2 sequence (Q08499 380-756): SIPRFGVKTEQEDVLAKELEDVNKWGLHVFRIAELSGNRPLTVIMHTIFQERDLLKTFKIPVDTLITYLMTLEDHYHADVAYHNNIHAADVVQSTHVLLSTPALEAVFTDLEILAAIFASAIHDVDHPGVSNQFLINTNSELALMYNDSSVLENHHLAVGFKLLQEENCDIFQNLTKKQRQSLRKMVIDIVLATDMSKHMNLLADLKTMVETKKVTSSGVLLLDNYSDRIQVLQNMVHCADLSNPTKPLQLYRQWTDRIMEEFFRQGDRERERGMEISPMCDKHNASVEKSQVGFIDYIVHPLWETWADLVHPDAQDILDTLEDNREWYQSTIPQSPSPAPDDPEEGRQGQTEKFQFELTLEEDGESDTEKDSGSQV
How it was run: as §1

SMILES: COC(=O)C(CC(C)C)Nc1sc(C(=O)c2ccccc2Cl)c(N)c1C#N (stereo not shown) [Compound 1-111, 2-[4-Amino-5-(2-chloro-benzoyl)-3-cyano-thiophene-2-ylamino]-4-methyl-pentanoic acid methyl ester]
- IC50 [1]: < 10 µM
- IC50 (PDE4D): < 10 µM

SMILES: COC(=O)C(CCSC)Nc1sc(C(=O)c2ccccc2Cl)c(N)c1C#N (stereo not shown) [Compound 1-112, 2-[4-Amino-5-(2-chloro-benzoyl)-3-cyano-thiophene-2-ylamino]-4-methylsulfanyl-butyric acid methyl ester]
- IC50 [1]: < 10 µM
- IC50 (PDE4D): < 10 µM

SMILES: COc1ccc(CNc2sc(C(=O)c3ccccc3Cl)c(N)c2C#N)cc1OC [Compound 1-113, 4-Amino-5-(2-chloro-benzoyl)-2-(3,4-dimethoxy-benzylamino)-thiophene-3-carbonitrile]
- IC50 [1]: < 10 µM
- IC50 (PDE4D): < 10 µM

SMILES: N#Cc1c(Nc2ccc(C(=O)NC3CCOC3=O)cc2)sc(C(=O)c2ccccc2Cl)c1N (stereo not shown) [Compound 1-114, 4-[4-Amino-5-(2-chloro-benzoyl)-3-cyano-thiophen-2-ylamino]-N-(2-oxo-tetrahydro-furan-3-yl)-benzamide]
- IC50 [1]: < 10 µM
- IC50 (PDE4D): < 10 µM

SMILES: N#Cc1c(NC2CCCC2)sc(C(=O)c2ccccc2Cl)c1N [Compound 1-115, 4-Amino-5-(2-chloro-benzoyl)-2-cyclopentylamino-thiophene-3-carbonitrile]
- IC50 [1]: < 10 µM
- IC50 (PDE4D): < 10 µM

SMILES: N#Cc1c(NC2CCOC2=O)sc(C(=O)c2ccccc2Cl)c1N (stereo not shown) [Compound 1-116, 4-Amino-5-(2-chloro-benzoyl)-2-(2-oxo-tetrahydro-furan-3-ylamino)-thiophene-3-carbonitrile]
- IC50 [1]: > 10 µM
- IC50 (PDE4D): > 10 µM

SMILES: COc1ccc(Nc2sc(C(=O)c3cccc(Cl)c3)c(N)c2C#N)cc1 [Compound 1-117, 4-Amino-5-(3-chloro-benzoyl)-2-(4-methoxy-phenylamino)-thiophene-3-carbonitrile]
- IC50 [1]: < 10 µM
- IC50 (PDE4D): < 10 µM

SMILES: COC(=O)C(CC(C)C)Nc1sc(C(=O)c2cccc(Cl)c2)c(N)c1C#N (stereo not shown) [Compound 1-118, 2-[4-Amino-5-(3-chloro-benzoyl)-3-cyano-thiophen-2-ylamino]-4-methyl-pentanoic acid methyl ester]
- IC50 [1]: < 10 µM
- IC50 (PDE4D): > 10 µM

SMILES: N#Cc1c(Nc2ccc(C(=O)NC3CCOC3=O)cc2)sc(C(=O)c2cccc(Cl)c2)c1N (stereo not shown) [Compound 1-119, 4-[4-Amino-5-(3-chloro-benzoyl)-3-cyano-thiophen-2-ylamino]-N-(2-oxo-tetrahydro-furan-3-yl)-benzamide]
- IC50 [1]: < 10 µM
- IC50 (PDE4D): < 10 µM

SMILES: N#Cc1c(NC2CCCC2)sc(C(=O)c2cccc(Cl)c2)c1N [Compound 1-120, 4-Amino-5-(3-chloro-benzoyl) 2-cyclopentylamino-thiophene-3-carbonitrile]
- IC50 [1]: < 10 µM
- IC50 (PDE4D): < 10 µM

SMILES: COC(=O)C(CC(C)C)Nc1sc(C(=O)c2csc3ccccc23)c(N)c1C#N (stereo not shown) [Compound 1-121, 2-[4-Amino-5-(benzo[b]thiophene-3-carbonyl)-3-cyano-thiophen-2-ylamino]-4-methyl-pentanoic acid methyl ester]
- IC50 [1]: < 10 µM
- IC50 (PDE4D): < 10 µM

SMILES: COC(=O)C(CCSC)Nc1sc(C(=O)c2csc3ccccc23)c(N)c1C#N (stereo not shown) [Compound 1-122, 2-[4-Amino-5-(benzo[b]thiophene-3-carbonyl)-3-cyano-thiophen-2-ylamino]-4-methylsulfanyl-butyric acid methyl ester]
- IC50 [1]: < 10 µM
- IC50 (PDE4D): < 10 µM

SMILES: N#Cc1c(Nc2ccc(C(=O)NC3CCOC3=O)cc2)sc(C(=O)c2csc3ccccc23)c1N (stereo not shown) [Compound 1-123, 4-[4-Amino-5-(benzo[b]thiophene-3-carbonyl)-3-cyano-thiophen-2-ylamino]-N-(2-oxo-tetrahydro-furan-3-yl)-benzamide]
- IC50 [1]: < 10 µM
- IC50 (PDE4D): < 10 µM

SMILES: N#Cc1c(NC2CCCC2)sc(C(=O)c2csc3ccccc23)c1N [Compound 1-124, 4-Amino-5-(benzo[b]thiophene-3-carbonyl)-2-cyclopentylamino-thiophene-3-carbonitrile]
- IC50 [1]: < 10 µM
- IC50 (PDE4D): > 10 µM

SMILES: COC(=O)c1ccccc1Nc1sc(C(=O)c2cnn(-c3ccccc3)c2C)c(N)c1C#N [Compound 1-126, 2-[4-Amino-3-cyano-5-(5-methyl-1-phenyl-1H-pyrazole-4-carbonyl)-thiophen-2-ylamino]-benzoic acid methyl ester]
- IC50 [1]: < 10 µM
- IC50 (PDE4D): < 10 µM

SMILES: Cc1c(C(=O)c2sc(Nc3ccc(C(=O)NC4CCOC4=O)cc3)c(C#N)c2N)cnn1-c1ccccc1 (stereo not shown) [Compound 1-127, 4-[4-Amino-3-cyano-5-(5-methyl-1-phenyl-1H-pyrazole-4-carbonyl)-thiophen-2-ylamino]-N-(2-oxo-tetrahydro-furan-3-yl)-benzamide]
- IC50 [1]: < 10 µM
- IC50 (PDE4D): < 10 µM

SMILES: Cc1onc(-c2ccccc2)c1C(=O)c1sc(Nc2ccccc2F)c(C#N)c1N [Compound 1-128, 4-Amino-2-(2-fluoro-phenylamino)-5-(5-methyl-3-phenyl-isoxazole-4-carbonyl)-thiophene-3-carbonitrile]
- IC50 [1]: < 10 µM
- IC50 (PDE4D): < 10 µM

SMILES: COC(=O)C(CCSC)Nc1sc(C(=O)c2c(-c3ccccc3)noc2C)c(N)c1C#N (stereo not shown) [Compound 1-131, 2-[4-Amino-3-cyano-5-(5-methyl-3-phenyl-isoxazole-4-carbonyl)-thiophen-2-ylamino]-4-methylsulfanyl-butyric acid methyl ester]
- IC50 [1]: < 10 µM
- IC50 (PDE4D): > 10 µM

SMILES: COc1ccc(CNc2sc(C(=O)c3c(-c4ccccc4)noc3C)c(N)c2C#N)cc1OC [Compound 1-132, 4-Amino-2-(3,4-dimethoxy-benzylamino)-5-(5-methyl-3-phenyl-isoxazole-4-carbonyl)-thiophene-3-carbonitrile]
- IC50 [1]: < 10 µM
- IC50 (PDE4D): < 10 µM

SMILES: Cc1onc(-c2ccccc2)c1C(=O)c1sc(Nc2ccc(C(=O)NC3CCOC3=O)cc2)c(C#N)c1N (stereo not shown) [Compound 1-133, 4-[4-Amino-3-cyano-5-(5-methyl-3-phenyl-isoxazole-4-carbonyl)-thiophen-2-ylamino]-N-(2-oxo-tetrahydro-furan-3-yl)-benzamide]
- IC50 [1]: < 10 µM
- IC50 (PDE4D): < 10 µM

SMILES: Cc1onc(-c2ccccc2)c1C(=O)c1sc(NC2CCOC2=O)c(C#N)c1N (stereo not shown) [Compound 1-134, 4-Amino-5-(5-methyl-3-phenyl-isoxazole-4-carbonyl)-2-(2-oxo-tetrahydro-furan-3-ylamino)-thiophene-3-carbonitrile]
- IC50 [1]: < 10 µM
- IC50 (PDE4D): > 10 µM

SMILES: CCOC(=O)c1cc(C(=O)c2sc(NCCN3CCCCC3)c(C#N)c2N)on1 [Compound 1-135, 5-[3-Amino-4-cyano-5-(2-piperidin-1-yl-ethylamino)-thiophene-2-carbonyl]-isoxazole-3-carboxylic acid ethyl ester]
- IC50 [1]: < 10 µM
- IC50 (PDE4D): < 10 µM

SMILES: CCOC(=O)c1cc(C(=O)c2sc(NC(=O)c3ccccc3C)c(C#N)c2N)on1 [Compound 1-136, 5-[3-Amino-4-cyano-5-(2-methyl-benzoylamino)-thiophene-2-carbonyl]-isoxazole-3-carboxylic acid ethyl ester]
- IC50 [1]: > 10 µM
- IC50 (PDE4D): > 10 µM

SMILES: CCOC(=O)c1cc(C(=O)c2sc(NC(CC(C)C)C(=O)OC)c(C#N)c2N)on1 (stereo not shown) [Compound 1-137, 5-[3-Amino-4-cyano-5-(1-methoxycarbonyl-3-methyl-butylamino)-thiophene-2-carbonyl]-isoxazole-3-carboxylic acid ethyl ester]
- IC50 [1]: < 10 µM
- IC50 (PDE4D): > 10 µM

SMILES: CCOC(=O)c1cc(C(=O)c2sc(Nc3ccc(C(=O)NC4CCOC4=O)cc3)c(C#N)c2N)on1 (stereo not shown) [Compound 1-138]
- IC50 [1]: < 10 µM
- IC50 (PDE4D): < 10 µM

SMILES: CCOC(=O)c1cc(C(=O)c2sc(NC3CCOC3=O)c(C#N)c2N)on1 (stereo not shown) [Compound 1-140, 5-[3-Amino-4-cyano-5-(2-oxo-tetrahydro-furan-3-ylamino)-thiophene-2-carbonyl]-isoxazole-3-carboxylic acid ethyl ester]
- IC50 [1]: < 10 µM
- IC50 (PDE4D): > 10 µM

SMILES: COC(=O)C(CC(C)C)Nc1sc(C(=O)c2cc(-c3ccccc3)no2)c(N)c1C#N (stereo not shown) [Compound 1-141, 2-[4-Amino-3-cyano-5-(3-phenyl-isoxazole-5-carbonyl)-thiophen-2-ylamino]-4-methyl-pentanoic acid methyl ester]
- IC50 [1]: < 10 µM
- IC50 (PDE4D): < 10 µM

SMILES: N#Cc1c(Nc2ccccc2F)sc(C(=O)c2ccccn2)c1N [Compound 1-144, 4-Amino-2-(2-fluoro-phenylamino)-5-(pyridine-2-carbonyl)-thiophene-3-carbonitrile]
- IC50 [1]: < 10 µM
- IC50 (PDE4D): < 10 µM

SMILES: COc1ccc(Nc2sc(C(=O)c3ccccn3)c(N)c2C#N)cc1 [Compound 1-145, 4-Amino-2-(4-methoxy-phenylamino)-5-(pyridine-2-carbonyl)-thiophene-3-carbonitrile]
- IC50 [1]: > 10 µM
- IC50 (PDE4D): > 10 µM

SMILES: N#Cc1cccc(Nc2sc(C(=O)c3ccccn3)c(N)c2C#N)c1 [Compound 1-146, 4-Amino-2-(3-cyano-phenylamino)-5-(pyridine-2-carbonyl)-thiophene-3-carbonitrile]
- IC50 [1]: < 10 µM
- IC50 (PDE4D): > 10 µM

SMILES: N#Cc1c(Nc2ccc3c(c2)CCC3)sc(C(=O)c2ccccn2)c1N [Compound 1-147, 4-Amino-2-(indan-5-ylamino)-5-(pyridine-2-carbonyl)-thiophene-3-carbonitrile]
- IC50 [1]: < 10 µM
- IC50 (PDE4D): < 10 µM

SMILES: COC(=O)c1ccccc1Nc1sc(C(=O)c2ccccn2)c(N)c1C#N [Compound 1-148, 2-[4-Amino-3-cyano-5-(pyridine-2-carbonyl)-thiophen-2-ylamino]-benzoic acid methyl ester]
- IC50 [1]: < 10 µM
- IC50 (PDE4D): < 10 µM
